Experimental data taken from US20100184708A1, “USE OF GLY-PRO-GLU-OH (GPE) AS A THERAPEUTIC AGENT” (priority 2007, published 2010).

What was measured:
CEM-SS cells = experiment: Cytotoxicity in the HIV-1 assay (MTS cell viability); conditions: peptide 10 micrograms per ml, MTS
HIV-1IIIB = experiment: HIV-1 antiviral assay (CPE reduction); type: cell-based; conditions: peptide 10 micrograms per ml; 6 days post-infection; MTS
MRC-5 cells = experiment: Cytotoxicity testing in MRC-5 cells; type: cell-based, human; conditions: 6 days incubation, CellTiter 96
Pseudomonas aeruginosa = type: cell-based; conditions: 5 micrograms per ml
Streptococcus pneumoniae = type: cell-based; conditions: 5 micrograms per ml
[1] = Cytotoxicity in the HIV-1 assay (MTS cell viability); conditions: human, CEM-SS cells
[2] = Cytotoxicity testing in MRC-5 cells; type: cell-based, human; conditions: human, 6 days incubation, CellTiter 96, read-out: % Cell viability
[3] = Cytotoxicity in the HBV assay (dye uptake cell viability); type: cell-based; conditions: human, HepG2-2.2.15 cells, peptide 10 micrograms per ml, % cell control
Description: HepG2-2.2.15 cells were plated in 96-well microtiter plates. After 16-24 hours the confluent monolayer of HepG2-2.2.15 cells was washed and the medium was replaced with complete medium containing test peptide—10 micrograms per ml—in duplicate. Lamivudine (3TC) was used as the positive control, while media alone was added to the cells as a negative control (virus control). Three days later the culture medium was replaced with fresh medium containing the peptide. Six days following the initial administration of the peptide, the cell culture supernatants was collected, treated with pronase and DNAse and then used in a real-time quantitative TaqMan PCR assay. The PCR-amplified HBV DNA was detected in real-time by monitoring increases in fluorescence signals that result from the exonucleolytic degradation of a quenched fluorescence probe molecule that hybridizes to the mplified HBV DNA. For each PCR amplification, a standard curve was simultaneously generated using dilutions of purified HBV DNA. Antiviral activity was calculated from the reduction in HBV DNA levels (% virus control). A novel dye uptake assay was then employed to measure cell viability, which is used to calculate toxicity (% cell control).

MRSA = conditions: 5 micrograms per ml

In the case of Cc1cn([C@H]2C[C@H](N=[N+]=[N-])[C@@H](CO)O2)c(=O)[nH]c1=O [AZT, reference compound], the “% Cell viability” value (CEM-SS cells) is reported as 97% and the “% CPE reduction in HIV-1 infected CEM-SS cells” value (HIV-1IIIB) is reported as 99%.
With Nc1nc(O)c2ncn(COC(CO)CO)c2n1 [Ganciclovir, reference compound] the “% Cell viability” value (MRC-5 cells) was 100%.
For NCC(=O)N1CCC[C@H]1C(=O)N[C@@H](CCC(=O)O)C(=O)O [IGF-I (1-3), Gly-Pro-Glu-OH], the “% inhibition” value (Pseudomonas aeruginosa) was 0.0%, the “% inhibition” value (Streptococcus pneumoniae) was 0.0% and the viability at 10 micrograms per ml [1] was 100%. The viability at 144 h [2] was 100%, the viability at 144 h, 10 micrograms per ml [3] was 98.2% and the “% inhibition” value (MRSA) was 0.0%.
